Source: the NIST ThermoML archive (doi:10.1021/je5009334)
Numbers after ± are expanded uncertainties.

Experiment: xn = mol fraction of the nth substance listed
Conditions: 101 kPa, Liquid; for speed of sound: Sing-around technique in a fixed-path interferometer; for mass density: Vibrating tube method

CCC(O)CO (stereo not given) [1,2-butanediol] + OCc1ccccc1
Conditions	mass density [kg/m3]	speed of sound [m/s]
298.15 K, x2 = 0	998.492 ± 0.23	1452.6 ± 1.3
298.15 K, x2 = 0.1	1003.29 ± 0.23	1460.7 ± 1.3
298.15 K, x2 = 0.2	1007.97 ± 0.24	1469.2 ± 1.3
298.15 K, x2 = 0.3	1012.52 ± 0.24	1477.2 ± 1.3
298.15 K, x2 = 0.4	1016.95 ± 0.24	1485.3 ± 1.3
298.15 K, x2 = 0.5	1021.24 ± 0.25	1493.2 ± 1.3
298.15 K, x2 = 0.6	1025.4 ± 0.25	1500.6 ± 1.3
298.15 K, x2 = 0.7	1029.45 ± 0.26	1507.6 ± 1.3
298.15 K, x2 = 0.8	1033.41 ± 0.26	1514 ± 1.3
298.15 K, x2 = 0.9	1037.31 ± 0.26	1519.9 ± 1.3
303.15 K, x2 = 0	994.744 ± 0.23	1438.2 ± 1.3
303.15 K, x2 = 0.1	999.491 ± 0.23	1445.9 ± 1.3
303.15 K, x2 = 0.2	1004.13 ± 0.23	1454.3 ± 1.3
303.15 K, x2 = 0.3	1008.65 ± 0.24	1462.1 ± 1.3
303.15 K, x2 = 0.4	1013.06 ± 0.24	1470.3 ± 1.3
303.15 K, x2 = 0.5	1017.34 ± 0.25	1478 ± 1.3
303.15 K, x2 = 0.6	1021.49 ± 0.25	1485.2 ± 1.3
303.15 K, x2 = 0.7	1025.54 ± 0.25	1491.7 ± 1.3
303.15 K, x2 = 0.8	1029.5 ± 0.26	1498 ± 1.3
303.15 K, x2 = 0.9	1033.42 ± 0.26	1503.9 ± 1.3
308.15 K, x2 = 0	990.956 ± 0.23	1423.6 ± 1.3
308.15 K, x2 = 0.1	995.66 ± 0.23	1431.2 ± 1.3
308.15 K, x2 = 0.2	1000.26 ± 0.23	1439.4 ± 1.3
308.15 K, x2 = 0.3	1004.76 ± 0.23	1446.8 ± 1.3
308.15 K, x2 = 0.4	1009.14 ± 0.24	1454.9 ± 1.3
308.15 K, x2 = 0.5	1013.4 ± 0.24	1462.5 ± 1.3
308.15 K, x2 = 0.6	1017.55 ± 0.25	1469.4 ± 1.3
308.15 K, x2 = 0.7	1021.6 ± 0.25	1476 ± 1.3
308.15 K, x2 = 0.8	1025.58 ± 0.25	1482.2 ± 1.3
308.15 K, x2 = 0.9	1029.52 ± 0.25	1488.1 ± 1.3
313.15 K, x2 = 0	987.136 ± 0.23	1409.2 ± 1.3
313.15 K, x2 = 0.1	991.786 ± 0.23	1416.7 ± 1.3
313.15 K, x2 = 0.2	996.372 ± 0.23	1424.4 ± 1.3
313.15 K, x2 = 0.3	1000.84 ± 0.23	1431.8 ± 1.3
313.15 K, x2 = 0.4	1005.2 ± 0.24	1439.7 ± 1.3
313.15 K, x2 = 0.5	1009.46 ± 0.24	1447.1 ± 1.3
313.15 K, x2 = 0.6	1013.6 ± 0.24	1453.9 ± 1.3
313.15 K, x2 = 0.7	1017.66 ± 0.25	1460.4 ± 1.3
313.15 K, x2 = 0.8	1021.64 ± 0.25	1466.6 ± 1.3
313.15 K, x2 = 0.9	1025.6 ± 0.25	1472.5 ± 1.3
318.15 K, x2 = 0	983.284 ± 0.23	1394.6 ± 1.2
318.15 K, x2 = 0.1	987.894 ± 0.23	1401.9 ± 1.2
318.15 K, x2 = 0.2	992.45 ± 0.23	1409.5 ± 1.3
318.15 K, x2 = 0.3	996.891 ± 0.23	1416.7 ± 1.3
318.15 K, x2 = 0.4	1001.24 ± 0.23	1424.3 ± 1.3
318.15 K, x2 = 0.5	1005.48 ± 0.24	1431.4 ± 1.3
318.15 K, x2 = 0.6	1009.62 ± 0.24	1438.2 ± 1.3
318.15 K, x2 = 0.7	1013.68 ± 0.24	1444.8 ± 1.3
318.15 K, x2 = 0.8	1017.69 ± 0.24	1451 ± 1.3
318.15 K, x2 = 0.9	1021.67 ± 0.25	1456.9 ± 1.3
323.15 K, x2 = 0	979.394 ± 0.23	1380 ± 1.2
323.15 K, x2 = 0.1	983.969 ± 0.23	1387.2 ± 1.2
323.15 K, x2 = 0.2	988.488 ± 0.23	1394.3 ± 1.2
323.15 K, x2 = 0.3	992.923 ± 0.23	1401.7 ± 1.3
323.15 K, x2 = 0.4	997.257 ± 0.23	1409.1 ± 1.3
323.15 K, x2 = 0.5	1001.49 ± 0.23	1416.2 ± 1.3
323.15 K, x2 = 0.6	1005.63 ± 0.24	1423.1 ± 1.3
323.15 K, x2 = 0.7	1009.7 ± 0.24	1429.5 ± 1.3
323.15 K, x2 = 0.8	1013.72 ± 0.24	1435.7 ± 1.3
323.15 K, x2 = 0.9	1017.72 ± 0.24	1441.6 ± 1.3
